PubChem BioAssay (NCI)
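Five compound concentrations were applied to cells in 96-well plates for 48 hours; endpoints were derived by simple linear interpolation of the resulting dose-response curve. GI50: concentration for 50% inhibition of growth. Definition used: TGI = concentration required for complete inhibition of growth.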

Legend:
Test in all cases: growth of human tumour cells (NCI), 48 h
[1] = system: MOLT-4 leukemia
[2] = system: OVCAR-4 ovarian
[3] = system: PC-3 prostate
[4] = system: NCI-H226 lung
[5] = system: SK-MEL-2 melanoma
[6] = system: K-562 leukemia
[7] = system: SF-539 CNS
[8] = system: MCF7 breast
[9] = system: 786-0 renal
[10] = system: MALME-3M melanoma
[11] = system: NCI-H522 lung
[12] = system: OVCAR-3 ovarian
[13] = system: COLO 205 colon
[14] = system: ACHN renal
[15] = system: MDA-MB-231 breast
[16] = system: HCC-2998 colon
[17] = system: HL-60(TB) leukemia
[18] = system: SF-295 CNS
[19] = system: RPMI-8226 leukemia
[20] = system: DU-145 prostate
[21] = system: UO-31 renal
[22] = system: HS 578T breast
[23] = system: HOP-92 NSCLC
[24] = system: SK-MEL-28 melanoma
[25] = system: NCI/ADR-RES ovarian
[26] = system: HCT-116 colon
[27] = system: EKVX NSCLC
[28] = system: HT29 colon
[29] = system: CCRF-CEM leukemia
[30] = system: SN12C renal
[31] = system: TK-10 renal
[32] = system: UACC-62 melanoma
[33] = system: SNB-19 CNS
[34] = system: A498 renal
[35] = system: IGROV1 ovarian
[36] = system: U251 CNS
[37] = system: CAKI-1 renal
[38] = system: OVCAR-5 ovarian
[39] = system: T-47D breast
[40] = system: SK-MEL-5 melanoma
[41] = system: NCI-H460 lung
[42] = system: RXF 393 renal
[43] = system: HOP-62 NSCLC
[44] = system: LOX IMVI melanoma
[45] = system: M14 melanoma
[46] = system: NCI-H23 lung
[47] = system: HCT-15 colon
[48] = system: SK-OV-3 ovarian
[49] = system: SNB-75 CNS
[50] = system: SR leukemia
[51] = system: A549 NSCLC
[52] = system: SF-268 CNS
[53] = system: KM12 colon
[54] = system: OVCAR-8 ovarian
[55] = system: BT-549 breast
[56] = system: SW-620 colon
[57] = system: MDA-MB-435

For `Cc1ccc(Cl)cc1-c1nc(N)nc(Nc2ccc(Br)cc2)n1`, the GI50 [1] was 88.3 nM, the TGI [1] was over 22100 nM and the GI50 [2] was 274 nM. For the same compound, the TGI [2] was over 100000 nM, the GI50 [3] was 53.8 nM and the TGI [3] was over 100000 nM. The GI50 [4] was 1740 nM, the GI50 [5] was 69.2 nM and the TGI [5] was over 100000 nM. For the same compound, the GI50 [6] was 42.2 nM, the TGI [6] was over 100000 nM and the GI50 [7] was 40.6 nM. The TGI [7] was over 29000 nM, the GI50 [8] was 45.6 nM and the TGI [8] was over 100000 nM. The GI50 [9] was 59.6 nM, the TGI [9] was over 100000 nM and the GI50 [10] was 70.3 nM. The TGI [10] was over 100000 nM, the GI50 [11] was 33.2 nM and the GI50 [12] was 31.7 nM. For the same compound, the GI50 [13] was 45.4 nM, the TGI [13] was 254 nM and the GI50 [14] was 91.1 nM. For the same compound, the TGI [14] was over 100000 nM, the GI50 [15] was 139 nM and the TGI [15] was over 100000 nM. It also gave a GI50 [16] of 160 nM, a GI50 [17] of 30.5 nM and a GI50 [18] of 41 nM. For the same compound, the TGI [18] was over 100000 nM, the GI50 [19] was 85.1 nM and the TGI [19] was over 100000 nM. It also gave a GI50 [20] of 69 nM, a TGI [20] of over 56500 nM and a GI50 [21] of 73.3 nM. It also gave a TGI [21] of over 100000 nM, a GI50 [22] of 45.5 nM and a TGI [22] of over 48500 nM. It also gave a GI50 [23] of 2280 nM, a TGI [23] of over 100000 nM and a GI50 [24] of 126 nM. For the same compound, the TGI [24] was over 100000 nM, the GI50 [25] was 34.7 nM and the TGI [25] was 208 nM. For the same compound, the GI50 [26] was 43.5 nM, the TGI [26] was over 100000 nM and the GI50 [27] was 667 nM. For the same compound, the TGI [27] was over 100000 nM, the GI50 [28] was 36.5 nM and the GI50 [29] was 44.4 nM. It also gave a GI50 [30] of 62.8 nM, a TGI [30] of over 100000 nM and a GI50 [31] of 3290 nM. It also gave a TGI [31] of over 100000 nM, a GI50 [32] of 59.4 nM and a TGI [32] of over 100000 nM. The GI50 [33] was 83.2 nM, the TGI [33] was over 100000 nM and the GI50 [34] was 32.6 nM. It also gave a TGI [34] of 2470 nM, a GI50 [35] of 150 nM and a TGI [35] of over 100000 nM. It also gave a GI50 [36] of 46.1 nM, a TGI [36] of 8720 nM and a GI50 [37] of 19200 nM. It also gave a TGI [37] of over 100000 nM, a GI50 [38] of 358 nM and a TGI [38] of over 100000 nM. The GI50 [39] was 22600 nM, the TGI [39] was over 100000 nM and the GI50 [40] was 41.1 nM. For the same compound, the TGI [40] was over 100000 nM, the GI50 [41] was 38.5 nM and the TGI [41] was over 38700 nM. For the same compound, the GI50 [42] was 30.9 nM, the TGI [42] was 3990 nM and the GI50 [43] was 72.3 nM. It also gave a TGI [43] of over 100000 nM, a GI50 [44] of 68.7 nM and a TGI [44] of over 100000 nM. It also gave a GI50 [45] of 41.4 nM, a TGI [45] of over 100000 nM and a GI50 [46] of 73.9 nM. It also gave a GI50 [47] of 53.5 nM, a TGI [47] of over 100000 nM and a GI50 [48] of 51.7 nM. It also gave a TGI [48] of 21000 nM, a GI50 [49] of 29 nM and a TGI [49] of over 100000 nM. For the same compound, the GI50 [50] was 36.1 nM, the TGI [50] was over 100000 nM and the GI50 [51] was 66.3 nM. The TGI [51] was over 100000 nM, the TGI [52] was over 100000 nM and the GI50 [53] was 50.3 nM. The TGI [53] was over 100000 nM, the GI50 [54] was 74.5 nM and the TGI [54] was over 100000 nM. It also gave a GI50 [55] of 58.1 nM, a GI50 [56] of 40.8 nM and a TGI [56] of over 100000 nM. It also gave a GI50 [57] of 22.2 nM and a TGI [57] of 59.8 nM.
